Assay results reported in ChEMBL document CHEMBL1221208, “ATP-competitive inhibitors of the mitotic kinesin KSP that function via an allosteric mechanism” (Nat Chem Biol, 2007).

target: Centromere-associated protein E (Homo sapiens) (UniProt Q02224); assay: Inhibition of CENPE at 10 uM by puruvate kinsase-lactate dehydrogenase detection system
Sequence (Q02224 whole entry): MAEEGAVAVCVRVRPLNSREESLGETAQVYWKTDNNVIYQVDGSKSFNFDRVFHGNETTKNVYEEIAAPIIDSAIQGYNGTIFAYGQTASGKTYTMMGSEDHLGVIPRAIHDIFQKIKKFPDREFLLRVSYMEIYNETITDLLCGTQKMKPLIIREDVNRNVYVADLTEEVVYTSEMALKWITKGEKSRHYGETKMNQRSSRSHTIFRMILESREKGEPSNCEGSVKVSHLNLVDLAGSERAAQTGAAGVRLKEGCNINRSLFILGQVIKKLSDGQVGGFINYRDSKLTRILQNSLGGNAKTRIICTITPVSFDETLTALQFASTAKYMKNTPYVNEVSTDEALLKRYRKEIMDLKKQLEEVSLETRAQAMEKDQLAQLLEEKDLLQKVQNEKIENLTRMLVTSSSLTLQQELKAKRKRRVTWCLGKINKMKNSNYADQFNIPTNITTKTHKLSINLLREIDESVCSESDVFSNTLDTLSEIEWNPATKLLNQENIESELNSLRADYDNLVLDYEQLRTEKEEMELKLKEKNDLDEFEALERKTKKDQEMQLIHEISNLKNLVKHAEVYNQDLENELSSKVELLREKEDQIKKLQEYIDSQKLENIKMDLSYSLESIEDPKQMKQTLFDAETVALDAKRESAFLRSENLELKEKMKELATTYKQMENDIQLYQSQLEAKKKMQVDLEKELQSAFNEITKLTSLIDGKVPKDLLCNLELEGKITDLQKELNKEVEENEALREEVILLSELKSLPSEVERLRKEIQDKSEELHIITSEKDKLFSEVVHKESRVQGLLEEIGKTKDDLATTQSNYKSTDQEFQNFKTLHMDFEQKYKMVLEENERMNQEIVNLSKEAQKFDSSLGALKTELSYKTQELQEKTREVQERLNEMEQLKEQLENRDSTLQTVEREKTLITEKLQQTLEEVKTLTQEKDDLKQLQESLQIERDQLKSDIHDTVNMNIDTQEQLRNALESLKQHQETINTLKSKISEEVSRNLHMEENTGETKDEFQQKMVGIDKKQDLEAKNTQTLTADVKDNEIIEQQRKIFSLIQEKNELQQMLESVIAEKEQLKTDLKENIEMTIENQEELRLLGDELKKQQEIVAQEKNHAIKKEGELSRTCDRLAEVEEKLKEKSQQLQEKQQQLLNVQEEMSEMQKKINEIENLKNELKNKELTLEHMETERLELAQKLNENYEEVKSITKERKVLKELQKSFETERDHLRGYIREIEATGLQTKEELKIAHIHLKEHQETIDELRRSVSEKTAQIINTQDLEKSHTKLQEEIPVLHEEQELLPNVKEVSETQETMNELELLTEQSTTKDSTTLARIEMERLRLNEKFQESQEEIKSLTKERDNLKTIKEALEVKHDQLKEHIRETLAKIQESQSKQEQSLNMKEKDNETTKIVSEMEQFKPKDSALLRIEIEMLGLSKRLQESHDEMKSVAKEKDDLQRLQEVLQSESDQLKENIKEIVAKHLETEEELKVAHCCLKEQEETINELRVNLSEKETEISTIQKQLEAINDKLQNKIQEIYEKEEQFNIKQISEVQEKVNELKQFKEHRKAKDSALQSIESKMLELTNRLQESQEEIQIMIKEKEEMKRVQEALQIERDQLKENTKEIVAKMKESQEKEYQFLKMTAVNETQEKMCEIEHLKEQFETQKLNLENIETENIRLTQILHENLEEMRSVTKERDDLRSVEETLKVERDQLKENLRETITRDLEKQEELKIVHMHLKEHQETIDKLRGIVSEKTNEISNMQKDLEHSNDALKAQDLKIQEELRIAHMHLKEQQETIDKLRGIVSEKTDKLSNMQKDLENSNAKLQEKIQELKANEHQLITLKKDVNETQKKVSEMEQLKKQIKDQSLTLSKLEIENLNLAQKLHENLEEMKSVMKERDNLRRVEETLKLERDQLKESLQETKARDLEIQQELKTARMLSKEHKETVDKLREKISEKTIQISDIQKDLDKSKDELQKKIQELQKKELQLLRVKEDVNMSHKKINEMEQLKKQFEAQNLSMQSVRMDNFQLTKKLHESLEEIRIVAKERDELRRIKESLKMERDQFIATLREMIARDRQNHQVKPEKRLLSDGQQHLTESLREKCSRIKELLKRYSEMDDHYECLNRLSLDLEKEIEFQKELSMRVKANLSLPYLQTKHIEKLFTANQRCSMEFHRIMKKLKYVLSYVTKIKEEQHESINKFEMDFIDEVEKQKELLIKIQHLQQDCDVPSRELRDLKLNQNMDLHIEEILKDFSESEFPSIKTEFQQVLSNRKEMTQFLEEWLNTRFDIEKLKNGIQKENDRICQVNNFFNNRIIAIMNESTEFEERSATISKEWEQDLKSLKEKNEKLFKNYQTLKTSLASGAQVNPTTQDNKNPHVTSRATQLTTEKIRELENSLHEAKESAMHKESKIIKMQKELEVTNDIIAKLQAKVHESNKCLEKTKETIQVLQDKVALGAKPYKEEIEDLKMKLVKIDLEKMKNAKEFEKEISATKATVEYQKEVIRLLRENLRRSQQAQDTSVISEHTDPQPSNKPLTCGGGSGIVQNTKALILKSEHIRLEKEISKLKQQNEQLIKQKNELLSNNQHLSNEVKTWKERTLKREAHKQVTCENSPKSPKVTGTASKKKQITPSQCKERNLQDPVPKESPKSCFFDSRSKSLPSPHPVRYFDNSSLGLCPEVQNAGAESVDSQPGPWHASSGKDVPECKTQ

In order of falling inhibition:
1. NC(=O)Nc1ccc(-c2ccc(C(F)(F)F)cc2)cc1F  11%
2. O=C1CCc2cc(-c3ccc(C(F)(F)F)cc3)ccc2N1  9%
3. Cc1ccc(C(=O)N(CCCN)[C@@H](c2nc3cc(Cl)ccc3c(=O)n2Cc2ccccc2)C(C)C)cc1  7%

target: Kinesin-like protein KIF1A (Homo sapiens) (UniProt Q12756); assay: Inhibition of Kif1A at 10 uM by puruvate kinsase-lactate dehydrogenase detection system
Sequence (Q12756 whole entry): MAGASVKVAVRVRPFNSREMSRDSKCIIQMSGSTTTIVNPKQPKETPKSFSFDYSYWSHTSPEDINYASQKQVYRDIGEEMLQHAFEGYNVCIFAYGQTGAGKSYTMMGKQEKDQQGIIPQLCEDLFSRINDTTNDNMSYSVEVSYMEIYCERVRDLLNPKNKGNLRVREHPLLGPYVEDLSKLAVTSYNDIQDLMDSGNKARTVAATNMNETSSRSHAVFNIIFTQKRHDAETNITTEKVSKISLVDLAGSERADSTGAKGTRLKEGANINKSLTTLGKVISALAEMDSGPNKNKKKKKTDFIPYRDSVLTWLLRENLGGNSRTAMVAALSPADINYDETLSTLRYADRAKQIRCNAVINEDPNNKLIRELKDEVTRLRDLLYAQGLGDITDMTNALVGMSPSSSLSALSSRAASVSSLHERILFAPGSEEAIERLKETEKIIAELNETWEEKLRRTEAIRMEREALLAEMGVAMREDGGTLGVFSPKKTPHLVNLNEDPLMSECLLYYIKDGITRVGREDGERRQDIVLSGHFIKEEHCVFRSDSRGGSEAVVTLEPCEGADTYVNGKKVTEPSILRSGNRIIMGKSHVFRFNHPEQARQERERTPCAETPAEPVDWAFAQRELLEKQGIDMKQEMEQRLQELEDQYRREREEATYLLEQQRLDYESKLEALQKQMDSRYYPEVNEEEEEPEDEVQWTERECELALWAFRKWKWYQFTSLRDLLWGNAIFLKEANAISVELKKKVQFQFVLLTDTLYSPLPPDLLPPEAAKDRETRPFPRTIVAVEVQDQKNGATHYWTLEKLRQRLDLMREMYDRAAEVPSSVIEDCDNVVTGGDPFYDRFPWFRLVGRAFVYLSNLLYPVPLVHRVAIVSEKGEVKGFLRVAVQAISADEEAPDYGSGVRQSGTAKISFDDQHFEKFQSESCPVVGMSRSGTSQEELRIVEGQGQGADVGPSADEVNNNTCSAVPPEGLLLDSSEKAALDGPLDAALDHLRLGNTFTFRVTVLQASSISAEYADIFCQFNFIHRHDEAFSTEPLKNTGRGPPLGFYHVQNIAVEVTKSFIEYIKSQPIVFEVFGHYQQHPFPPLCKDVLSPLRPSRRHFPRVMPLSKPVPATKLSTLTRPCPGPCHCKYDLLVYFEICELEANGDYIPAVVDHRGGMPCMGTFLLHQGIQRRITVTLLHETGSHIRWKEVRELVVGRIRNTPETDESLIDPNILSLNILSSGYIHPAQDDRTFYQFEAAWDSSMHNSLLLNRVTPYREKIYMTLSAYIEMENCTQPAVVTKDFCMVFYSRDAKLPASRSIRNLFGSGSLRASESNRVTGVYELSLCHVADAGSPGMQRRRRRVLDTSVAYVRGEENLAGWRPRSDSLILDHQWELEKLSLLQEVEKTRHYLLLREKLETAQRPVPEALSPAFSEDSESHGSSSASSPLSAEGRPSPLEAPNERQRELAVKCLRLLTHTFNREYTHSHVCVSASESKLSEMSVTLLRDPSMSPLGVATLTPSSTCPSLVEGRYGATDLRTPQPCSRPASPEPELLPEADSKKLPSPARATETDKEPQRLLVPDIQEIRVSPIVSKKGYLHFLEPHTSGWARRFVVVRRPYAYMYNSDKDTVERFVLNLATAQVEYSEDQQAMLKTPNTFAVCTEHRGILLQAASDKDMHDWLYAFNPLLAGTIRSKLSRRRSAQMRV

In order of rising inhibition:
1. Cc1ccc(C(=O)N(CCCN)[C@@H](c2nc3cc(Cl)ccc3c(=O)n2Cc2ccccc2)C(C)C)cc1  8.2%
2. O=C1CCc2cc(-c3ccc(C(F)(F)F)cc3)ccc2N1  8.9%
3. NC(=O)Nc1ccc(-c2ccc(C(F)(F)F)cc2)cc1F  12.8%

target: T1, Kinesin-like protein KIF23 (Homo sapiens) (UniProt Q02241); assay: Inhibition of MKLP1 at 10 uM by puruvate kinsase-lactate dehydrogenase detection system
T1 sequence (whole entry): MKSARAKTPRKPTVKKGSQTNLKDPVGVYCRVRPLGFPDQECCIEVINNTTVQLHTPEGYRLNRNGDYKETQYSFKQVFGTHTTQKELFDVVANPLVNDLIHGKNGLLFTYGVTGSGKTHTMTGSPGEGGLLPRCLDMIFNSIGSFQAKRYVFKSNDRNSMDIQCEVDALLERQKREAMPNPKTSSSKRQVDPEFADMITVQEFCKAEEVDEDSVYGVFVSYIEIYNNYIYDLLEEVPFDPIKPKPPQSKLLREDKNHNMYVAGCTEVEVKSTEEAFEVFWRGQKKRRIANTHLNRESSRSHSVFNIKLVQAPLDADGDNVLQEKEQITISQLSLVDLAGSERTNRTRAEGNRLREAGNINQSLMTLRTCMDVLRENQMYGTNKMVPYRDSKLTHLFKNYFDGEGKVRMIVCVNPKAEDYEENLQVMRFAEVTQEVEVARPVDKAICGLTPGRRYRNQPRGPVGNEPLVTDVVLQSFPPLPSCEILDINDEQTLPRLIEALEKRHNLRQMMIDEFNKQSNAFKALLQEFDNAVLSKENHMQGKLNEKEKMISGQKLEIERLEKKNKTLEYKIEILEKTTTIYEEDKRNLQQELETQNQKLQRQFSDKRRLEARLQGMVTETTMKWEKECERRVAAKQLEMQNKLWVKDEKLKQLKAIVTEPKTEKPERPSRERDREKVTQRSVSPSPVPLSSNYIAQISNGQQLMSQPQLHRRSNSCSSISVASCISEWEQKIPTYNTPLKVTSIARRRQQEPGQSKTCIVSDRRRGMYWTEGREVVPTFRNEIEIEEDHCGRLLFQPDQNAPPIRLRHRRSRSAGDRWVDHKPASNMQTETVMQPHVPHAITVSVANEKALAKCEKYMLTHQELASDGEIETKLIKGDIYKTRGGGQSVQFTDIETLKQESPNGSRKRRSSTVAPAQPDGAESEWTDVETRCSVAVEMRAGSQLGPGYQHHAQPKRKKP

In order of falling inhibition:
1. NC(=O)Nc1ccc(-c2ccc(C(F)(F)F)cc2)cc1F  9.4%
2. O=C1CCc2cc(-c3ccc(C(F)(F)F)cc3)ccc2N1  7.7%
3. Cc1ccc(C(=O)N(CCCN)[C@@H](c2nc3cc(Cl)ccc3c(=O)n2Cc2ccccc2)C(C)C)cc1  7.1%

target: T2, Kinesin-like protein KIFC1 (Homo sapiens) (UniProt Q9BW19); assay: Inhibition of HSET at 10 uM by puruvate kinsase-lactate dehydrogenase detection system
T2 sequence (whole entry): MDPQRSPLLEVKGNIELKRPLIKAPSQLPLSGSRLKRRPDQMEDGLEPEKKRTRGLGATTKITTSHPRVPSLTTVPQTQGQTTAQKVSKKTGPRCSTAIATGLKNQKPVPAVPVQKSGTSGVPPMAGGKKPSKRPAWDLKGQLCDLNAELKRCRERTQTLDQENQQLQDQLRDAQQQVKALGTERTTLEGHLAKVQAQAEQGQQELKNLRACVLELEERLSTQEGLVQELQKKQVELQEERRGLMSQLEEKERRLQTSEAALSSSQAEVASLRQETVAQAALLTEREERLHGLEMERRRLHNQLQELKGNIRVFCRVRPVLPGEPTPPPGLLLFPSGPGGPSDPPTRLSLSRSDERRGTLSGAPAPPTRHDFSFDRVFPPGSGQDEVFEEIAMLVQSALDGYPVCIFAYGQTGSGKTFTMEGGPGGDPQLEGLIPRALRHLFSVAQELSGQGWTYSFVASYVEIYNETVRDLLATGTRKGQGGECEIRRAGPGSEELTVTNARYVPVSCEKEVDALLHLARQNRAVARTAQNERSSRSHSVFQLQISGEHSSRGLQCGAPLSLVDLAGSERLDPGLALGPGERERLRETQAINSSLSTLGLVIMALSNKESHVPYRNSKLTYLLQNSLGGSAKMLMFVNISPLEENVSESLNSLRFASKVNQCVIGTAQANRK

In order of rising inhibition:
1. NC(=O)Nc1ccc(-c2ccc(C(F)(F)F)cc2)cc1F  2.6%
2. O=C1CCc2cc(-c3ccc(C(F)(F)F)cc3)ccc2N1  4.1%
3. Cc1ccc(C(=O)N(CCCN)[C@@H](c2nc3cc(Cl)ccc3c(=O)n2Cc2ccccc2)C(C)C)cc1  4.2%

target: T3, Kinesin-like protein KIF2C (Homo sapiens) (UniProt Q99661); assay: Inhibition of MCAK at 10 uM by puruvate kinsase-lactate dehydrogenase detection system
T3 sequence (whole entry): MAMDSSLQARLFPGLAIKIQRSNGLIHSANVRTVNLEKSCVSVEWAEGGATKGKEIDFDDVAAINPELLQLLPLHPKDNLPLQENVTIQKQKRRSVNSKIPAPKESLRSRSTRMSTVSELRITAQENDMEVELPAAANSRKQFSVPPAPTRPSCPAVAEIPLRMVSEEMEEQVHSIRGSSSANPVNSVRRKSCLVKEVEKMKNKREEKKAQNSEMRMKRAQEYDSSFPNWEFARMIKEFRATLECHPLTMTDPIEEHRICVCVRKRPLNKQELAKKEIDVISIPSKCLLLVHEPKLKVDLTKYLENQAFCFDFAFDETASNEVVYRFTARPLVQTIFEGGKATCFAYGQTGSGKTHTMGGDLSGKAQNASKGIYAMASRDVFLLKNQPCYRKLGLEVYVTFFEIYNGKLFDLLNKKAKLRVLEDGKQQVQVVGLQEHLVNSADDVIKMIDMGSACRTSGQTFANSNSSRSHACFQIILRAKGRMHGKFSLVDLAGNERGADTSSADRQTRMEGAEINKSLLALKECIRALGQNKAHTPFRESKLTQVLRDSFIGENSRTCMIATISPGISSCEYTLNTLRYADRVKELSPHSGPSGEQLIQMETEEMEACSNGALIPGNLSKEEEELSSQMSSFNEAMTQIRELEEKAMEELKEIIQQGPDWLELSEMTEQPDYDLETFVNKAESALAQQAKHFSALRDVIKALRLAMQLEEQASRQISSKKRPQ

In order of rising inhibition:
1. NC(=O)Nc1ccc(-c2ccc(C(F)(F)F)cc2)cc1F  6.9%
2. Cc1ccc(C(=O)N(CCCN)[C@@H](c2nc3cc(Cl)ccc3c(=O)n2Cc2ccccc2)C(C)C)cc1  8.2%
3. O=C1CCc2cc(-c3ccc(C(F)(F)F)cc3)ccc2N1  8.4%
